From BindingDB's records for doi:10.1021/cb500360c (AstraZeneca, 2014)

How the values were obtained:
[1] = target: UDP-N-acetylmuramate--L-alanine ligase (Escherichia coli (strain K12), UniProt P17952); experiment: E.coli MurC assay; settings: 25 °C
Experimental: The reactions (25 μL) were carried out in 25 mM Tris-HCl pH 8.0, 10 mM ammonium sulfate, 1.25 mM DTT, 0.002% Brij-35, 10 mM MgCl2, 40 μM UNAM, 100 μM ATP, 40 μM L-alanine and 15 nM enzyme in 384-well plate at 25 C for 50 minutes.

[2] = target: UDP-N-acetylmuramate--L-alanine ligase (Pseudomonas aeruginosa (strain ATCC 15692 / DSM 22644 / CIP 104116 / JCM 14847 / LMG 12228 / 1C / PRS 101 / PAO1), UniProt Q9HW02); experiment: P. aeruginosa MurC assay; settings: 25 °C
Experimental: The reactions (50 μL) were carried out in 50 mM Tris-HCl pH 8.0, 20 mM ammonium sulfate, 2.5 mM DTT, 0.002% Brij-35, 1 mM MgCl2, 18 μM UNAM, 38 μM ATP, 28 μM L-alanine, 2 μg/mL Poly uridine nucleic acid, 0.1 μM Polynucleotide Phosphorylase, 0.25X ribogreen and 3 nM enzyme in 384-well plate at 25 C for 60 minutes.

Chain of UDP-N-acetylmuramate--L-alanine ligase (Escherichia coli (strain K12), UniProt P17952) (P17952 whole entry): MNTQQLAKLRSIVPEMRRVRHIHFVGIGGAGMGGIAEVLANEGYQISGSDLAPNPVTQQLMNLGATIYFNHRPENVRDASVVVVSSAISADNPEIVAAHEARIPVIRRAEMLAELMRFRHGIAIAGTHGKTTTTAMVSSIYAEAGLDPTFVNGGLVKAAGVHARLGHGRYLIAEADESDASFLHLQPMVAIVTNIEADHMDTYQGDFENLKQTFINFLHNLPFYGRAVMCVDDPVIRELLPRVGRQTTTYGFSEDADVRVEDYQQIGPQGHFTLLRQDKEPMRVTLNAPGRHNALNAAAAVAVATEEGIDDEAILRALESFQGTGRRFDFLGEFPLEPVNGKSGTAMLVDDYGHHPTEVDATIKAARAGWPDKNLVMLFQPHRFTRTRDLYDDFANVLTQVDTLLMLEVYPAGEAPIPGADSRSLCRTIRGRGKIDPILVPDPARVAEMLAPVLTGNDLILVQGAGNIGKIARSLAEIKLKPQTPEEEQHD

IC50 [1]	IC50 [2]	Structure (SMILES)
101 nM	11 nM	Cn1nc(Nc2nc(NC(CO)C3CCOCC3)nc3n[nH]cc23)cc1C(C)(C)C (stereo unspecified) [2-(4-(5-tert-butyl-1-methyl-1H-pyrazol-3-ylamino)-1H-pyrazolo[3,4-d]pyrimidin-6-ylamino)-2-(tetrahydro-2H-pyran-4-yl)ethanol (8)]
	1000 nM	OCC1CCCCN1c1nc(Nc2cc(C3CC3)[nH]n2)c2cn[nH]c2n1 (stereo unspecified) [(1-(4-(3-cyclopropyl-1H-pyrazol-5-ylamino)-1H-pyrazolo[3,4-d]pyrimidin-6-yl)piperidin-2-yl)methanol (1)]
2 nM		Cn1nc(Nc2nc(N[C@@H]3c4ccccc4C[C@@H]3O)nc3n[nH]cc23)cc1C(C)(C)C [(1R,2S)-1-(4-(5-tert-butyl-1-methyl-1H-pyrazol-3-ylamino)-1H-pyrazolo[3,4-d]pyrimidin-6-ylamino)-2,3-dihydro-1H-inden-2-ol (13)]
	5 nM	Cn1nc(Nc2nc(N[C@H](CO)C3CCCCC3)nc3n[nH]cc23)cc1C(C)(C)C [((S)-2-(4-(5-tert-butyl-1-methyl-1H-pyrazol-3-ylamino)-1H-pyrazolo[3,4-d]pyrimidin-6-ylamino)-2-cyclohexylethanol (7)]
15 nM	1.2 nM	COc1cc([C@H](CO)Nc2nc(Nc3cc(C(C)(C)C)n(C)n3)c3c[nH]nc3n2)ccn1 [(R)-2-(4-(5-tert-butyl-1-methyl-1H-pyrazol-3-ylamino)-1H-pyrazolo[3,4-d]pyrimidin-6-ylamino)-2-(2-methoxypyridin-4-yl)ethanol (18)]
	0.6 nM	Cn1nc(Nc2nc(N[C@@H](CO)C3CCCCC3)nc3n[nH]cc23)cc1C(C)(C)C [(R)-2-(4-(5-tert-butyl-1-methyl-1H-pyrazol-3-ylamino)-1H-pyrazolo[3,4-d]pyrimidin-6-ylamino)-2-cyclohexylethanol (6)]
< 5 nM	1 nM	Cn1nc(Nc2nc(N[C@@H](CO)c3ccccc3)nc3n[nH]cc23)cc1C(C)(C)C [(R)-2-(4-(5-tert-butyl-1-methyl-1H-pyrazol-3-ylamino)-1H-pyrazolo[3,4-d]pyrimidin-6-ylamino)-2-phenylethanol (10)]
60 nM	7 nM	Cn1nc(Nc2nc(N[C@@H](COC(=O)NCCN3CCC(=O)N3)c3ccccc3)nc3n[nH]cc23)cc1C(C)(C)C [(R)-2-(4-(5-tert-butyl-1-methyl-1H-pyrazol-3-ylamino)-1H-pyrazolo[3,4-d]pyrimidin-6-ylamino)-2-phenylethyl 2-(3-oxopyrazolidin-1-yl)ethylcarbamate (25)]
4 nM	0.7 nM	Cn1nc(Nc2nc(N[C@@H](COC(=O)NCCN)c3ccccc3)nc3n[nH]cc23)cc1C(C)(C)C [(R)-2-(4-(5-tert-butyl-1-methyl-1H-pyrazol-3-ylamino)-1H-pyrazolo[3,4-d]pyrimidin-6-ylamino)-2-phenylethyl 2-aminoethylcarbamate (22)]
3 nM	2 nM	Cn1nc(Nc2nc(N[C@@H](COC(=O)NCCO)c3ccccc3)nc3n[nH]cc23)cc1C(C)(C)C [(R)-2-(4-(5-tert-butyl-1-methyl-1H-pyrazol-3-ylamino)-1H-pyrazolo[3,4-d]pyrimidin-6-ylamino)-2-phenylethyl 2-hydroxyethylcarbamate (21)]
3 nM	< 0.5 nM	CN1C(=O)NC[C@H]1CNC(=O)OC[C@H](Nc1nc(Nc2cc(C(C)(C)C)n(C)n2)c2c[nH]nc2n1)c1ccccc1 [(R)-2-(4-(5-tert-butyl-1-methyl-1H-pyrazol-3-ylamino)-1H-pyrazolo[3,4-d]pyrimidin-6-ylamino)-2-phenylethyl ((S)-3-methyl-2-oxoimidazolidin-4-yl)methylcarbamate (24)]
52 nM	6 nM	Cn1nc(Nc2nc(N[C@@H](COC(=O)NO)c3ccccc3)nc3n[nH]cc23)cc1C(C)(C)C [(R)-2-(4-(5-tert-butyl-1-methyl-1H-pyrazol-3-ylamino)-1H-pyrazolo[3,4-d]pyrimidin-6-ylamino)-2-phenylethyl hydroxycarbamate (20)]
< 1 nM	1.3 nM	Cn1nc(Nc2nc(N[C@@H](COC(=O)NCc3cc(=O)c(O)cn3O)c3ccccc3)nc3[nH]ncc23)cc1C(C)(C)C [(R)-2-(4-(5-tert-butyl-1-methyl-1H-pyrazol-3-ylamino)-1H-pyrazolo[3,4-d]pyrimidin-6-ylamino)-2-phenylethyl(1,5-dihydroxy-4-oxo-1,4-dihydropyridin-2-yl)methylcarbamate (23)]
188 nM	13 nM	CC(C)[C@H](CO)Nc1nc(Nc2cc(C(C)(C)C)n(C)n2)c2c[nH]nc2n1 [(R)-2-(4-(5-tert-butyl-1-methyl-1H-pyrazol-3-ylamino)-1H-pyrazolo[3,4-d]pyrimidin-6-ylamino)-3-methylbutan-1-ol (9)]
57 nM	8 nM	Cn1nc(Nc2nc(N[C@@H](CO)c3ccncc3Cl)nc3n[nH]cc23)cc1C(C)(C)C [(R)-2-((4-((5-(tert-butyl)-1-methyl-1H-pyrazol-3-yl)amino)-1H-pyrazolo[3,4-d]pyrimidin-6-yl)amino)-2-(3-chloropyridin-4-yl)ethanol (19)]
21 nM	4 nM	COc1ccc([C@H](CO)Nc2nc(Nc3cc(C(C)(C)C)n(C)n3)c3c[nH]nc3n2)cc1 [(R)-2-((4-((5-(tert-butyl)-1-methyl-1H-pyrazol-3-yl)amino)-1H-pyrazolo[3,4-d]pyrimidin-6-yl)amino)-2-(4-methoxyphenyl)ethanol (16)]
40 nM	8 nM	Cn1nc(Nc2nc(N[C@@H](CO)c3ccccn3)nc3n[nH]cc23)cc1C(C)(C)C [(R)-2-((4-((5-(tert-butyl)-1-methyl-1H-pyrazol-3-yl)amino)-1H-pyrazolo[3,4-d]pyrimidin-6-yl)amino)-2-(pyridin-2-yl)ethanol (14)]
	9 nM	Cn1nc(Nc2nc(N[C@@H](CO)c3cccnc3)nc3n[nH]cc23)cc1C(C)(C)C [(R)-2-((4-((5-(tert-butyl)-1-methyl-1H-pyrazol-3-yl)amino)-1H-pyrazolo[3,4-d]pyrimidin-6-yl)amino)-2-(pyridin-3-yl)ethanol (15)]
5 nM	0.6 nM	Cn1nc(Nc2nc(N[C@@H](COC(=O)N3CCOC(CN)C3)c3ccccc3)nc3n[nH]cc23)cc1C(C)(C)C (stereo partly drawn) [(R)-((R)-2-(4-(5-tert-butyl-1-methyl-1H-pyrazol-3-ylamino)-1H-pyrazolo[3,4-d]pyrimidin-6-ylamino)-2-phenylethyl) 2-(aminomethyl)morpholine-4-carboxylate (26)]
60 nM	7 nM	Cc1cc([C@H](CO)Nc2nc(Nc3cc(C(C)(C)C)n(C)n3)c3c[nH]nc3n2)on1 [(S)-2-(4-(5-tert-butyl-1-methyl-1H-pyrazol-3-ylamino)-1H-pyrazolo[3,4-d]pyrimidin-6-ylamino)-2-(3-methylisoxazol-5-yl)ethanol (12)]
11 nM	8 nM	Cn1nc(Nc2nc(N[C@H](CO)c3ccccc3)nc3[nH]ncc23)cc1C(C)(C)C [(S)-2-(4-(5-tert-butyl-1-methyl-1H-pyrazol-3-ylamino)-1H-pyrazolo[3,4-d]pyrimidin-6-ylamino)-2-phenylethanol (11)]
4 nM	< 0.5 nM	Cn1nc(Nc2nc(N[C@H](CO)c3cccc(F)c3)nc3n[nH]cc23)cc1C(C)(C)C [(S)-2-((4-((5-(tert-butyl)-1-methyl-1H-pyrazol-3-yl)amino)-1H-pyrazolo[3,4-d]pyrimidin-6-yl)amino)-2-(3-fluorophenyl)ethanol (17)]
	50 nM	OC[C@@H](Nc1nc(Nc2cc(C3CC3)n[nH]2)c2c[nH]nc2n1)C1CCCCC1 [(S)-2-cyclohexyl-2-(4-(3-cyclopropyl-1H-pyrazol-5-ylamino)-1H-pyrazolo[3,4-d]pyrimidin-6-ylamino)ethanol (2)]
	10 nM	CC(C)c1cc(Nc2nc(N[C@H](CO)C3CCCCC3)nc3n[nH]cc23)[nH]n1 [(S)-2-cyclohexyl-2-(4-(5-isopropyl-1H-pyrazol-3-ylamino)-1H-pyrazolo[3,4-d]pyrimidin-6-ylamino)ethanol (3)]
